Measurements as given in ChEMBL document CHEMBL1201862, “PubChem BioAssay data set” (2004).
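Five compound concentrations were applied to cells in 96-well plates for 48 hours; endpoints were derived by simple linear interpolation of the resulting dose-response curve. At the GI50, growth is halved.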 Active and inactive are the calls of the source. Rule as the data show it: active = GI50 up to about 1.1 µM and inactive = higher.

Legend:
Assay in all cases: NCI-60 cell line screen, 48 h
786-0 = system: 786-0
A498 = system: A498
A549 = system: A549
ACHN = system: ACHN
BT-549 = system: BT-549
CAKI-1 = system: CAKI-1
COLO 205 = system: COLO 205
DU-145 = system: DU-145
EKVX = system: EKVX
HCT-116 = system: HCT-116
HCT-15 = system: HCT-15
HL-60 = system: HL-60
HOP-62 = system: HOP-62
HOP-92 = system: HOP-92
HT-29 = system: HT-29
Hs-578T = system: Hs-578T
IGROV-1 = system: IGROV-1
K562 = system: K562
KM12 = system: KM12
LOX IMVI = system: LOX IMVI
M14 = system: M14
MCF7 = system: MCF7
MDA-MB-231 = system: MDA-MB-231
MDA-MB-435 = system: MDA-MB-435
MDA-N = system: MDA-N
MOLT-4 = system: MOLT-4
Malme-3M = system: Malme-3M
NCI-H226 = system: NCI-H226
NCI-H23 = system: NCI-H23
NCI-H522 = system: NCI-H522
NCI/ADR-RES = system: NCI/ADR-RES
OVCAR-3 = system: OVCAR-3
OVCAR-4 = system: OVCAR-4
OVCAR-5 = system: OVCAR-5
OVCAR-8 = system: OVCAR-8
PC-3 = system: PC-3
RPMI-8226 = system: RPMI-8226
RXF 393 = system: RXF 393
SF-268 = system: SF-268
SF-295 = system: SF-295
SF-539 = system: SF-539
SK-MEL-28 = system: SK-MEL-28
SK-MEL-2 = system: SK-MEL-2
SK-MEL-5 = system: SK-MEL-5
SK-OV-3 = system: SK-OV-3
SN12C = system: SN12C
SNB-19 = system: SNB-19
SR = system: SR
SW-620 = system: SW-620
T47D = system: T47D
TK-10 = system: TK-10
U-251 = system: U-251
UACC-257 = system: UACC-257
UACC-62 = system: UACC-62
UO-31 = system: UO-31
CCRF-CEM = system: CCRF-CEM
HCC 2998 = system: HCC 2998
SNB-75 = system: SNB-75
NCI-H460 = system: NCI-H460

## O=C1N2CCc3c([nH]c4ccccc34)C23CC2CCCCC12S3 (stereo not given)
786-0
  GI50: > 100000 nM (inactive)
A498
  GI50: > 100000 nM (inactive)
A549
  GI50: > 100000 nM (inactive)
ACHN
  GI50: > 100000 nM (inactive)
BT-549
  GI50: > 100000 nM (inactive)
CAKI-1
  GI50: > 100000 nM (inactive)
COLO 205
  GI50: > 100000 nM (inactive)
DU-145
  GI50: > 100000 nM (inactive)
EKVX
  GI50: > 100000 nM (inactive)
HCT-116
  GI50: > 100000 nM (inactive)
HCT-15
  GI50: > 100000 nM
HL-60
  GI50: 95500 nM (inactive)
HOP-62
  GI50: > 100000 nM (inactive)
HOP-92
  GI50: > 100000 nM (inactive)
HT-29
  GI50: > 100000 nM (inactive)
Hs-578T
  GI50: > 100000 nM (inactive)
IGROV-1
  GI50: > 100000 nM (inactive)
K562
  GI50: 34600 nM (inactive)
KM12
  GI50: > 100000 nM (inactive)
LOX IMVI
  GI50: > 100000 nM (inactive)
M14
  GI50: > 100000 nM (inactive)
MCF7
  GI50: 39400 nM (inactive)
MDA-MB-231
  GI50: > 100000 nM (inactive)
MDA-MB-435
  GI50: > 100000 nM (inactive)
MDA-N
  GI50: > 100000 nM (inactive)
MOLT-4
  GI50: 24700 nM (inactive)
Malme-3M
  GI50: > 100000 nM (inactive)
NCI-H226
  GI50: > 100000 nM (inactive)
NCI-H23
  GI50: > 100000 nM (inactive)
NCI-H522
  GI50: > 100000 nM (inactive)
NCI/ADR-RES
  GI50: > 100000 nM (inactive)
OVCAR-3
  GI50: > 100000 nM (inactive)
OVCAR-4
  GI50: > 100000 nM (inactive)
OVCAR-5
  GI50: > 100000 nM (inactive)
OVCAR-8
  GI50: > 100000 nM (inactive)
PC-3
  GI50: > 100000 nM (inactive)
RPMI-8226
  GI50: 48800 nM (inactive)
RXF 393
  GI50: > 100000 nM (inactive)
SF-268
  GI50: > 100000 nM (inactive)
SF-295
  GI50: > 100000 nM (inactive)
SF-539
  GI50: > 100000 nM (inactive)
SK-MEL-28
  GI50: > 100000 nM (inactive)
SK-MEL-2
  GI50: < 10 nM (active)
SK-MEL-5
  GI50: 63500 nM (inactive)
SK-OV-3
  GI50: > 100000 nM (inactive)
SN12C
  GI50: > 100000 nM (inactive)
SNB-19
  GI50: > 100000 nM (inactive)
SR
  GI50: 34500 nM (inactive)
SW-620
  GI50: > 100000 nM (inactive)
T47D
  GI50: > 100000 nM (inactive)
TK-10
  GI50: 28300 nM (inactive)
U-251
  GI50: > 100000 nM (inactive)
UACC-257
  GI50: 18500 nM (inactive)
UACC-62
  GI50: > 100000 nM (inactive)
UO-31
  GI50: > 100000 nM (inactive)

## CCN(CC)C(=S)N/N=C(\C)c1cccc(C)n1
A498
  GI50: 183 nM (active)
A549
  GI50: 259 nM (active)
ACHN
  GI50: 18.4 nM (active)
BT-549
  GI50: 776 nM (active)
CAKI-1
  GI50: 310 nM (active)
CCRF-CEM
  GI50: < 10 nM (active)
COLO 205
  GI50: < 10 nM (active)
DU-145
  GI50: 484 nM (active)
EKVX
  GI50: < 10 nM (active)
HCC 2998
  GI50: 363 nM (active)
HCT-116
  GI50: < 10 nM (active)
HCT-15
  GI50: < 24.9 nM
HL-60
  GI50: < 10 nM (active)
HOP-62
  GI50: 102 nM (active)
HOP-92
  GI50: 1490 nM (inactive)
HT-29
  GI50: < 10 nM (active)
Hs-578T
  GI50: 23400 nM (inactive)
IGROV-1
  GI50: < 10 nM (active)
K562
  GI50: < 10 nM (active)
KM12
  GI50: 201 nM (active)
LOX IMVI
  GI50: < 10 nM (active)
M14
  GI50: < 41 nM (active)
MCF7
  GI50: < 10 nM (active)
MDA-MB-231
  GI50: < 10 nM (active)
MDA-MB-435
  GI50: 377 nM (active)
MDA-N
  GI50: 474 nM (active)
MOLT-4
  GI50: < 10 nM (active)
Malme-3M
  GI50: 36.5 nM (active)
NCI-H522
  GI50: 27.6 nM (active)
NCI/ADR-RES
  GI50: < 10 nM (active)
OVCAR-3
  GI50: < 10 nM (active)
OVCAR-5
  GI50: 2080 nM (inactive)
OVCAR-8
  GI50: 287 nM (active)
PC-3
  GI50: < 10 nM (active)
RPMI-8226
  GI50: < 10 nM (active)
RXF 393
  GI50: 568 nM (active)
SF-268
  GI50: 59.3 nM (active)
SF-295
  GI50: 315 nM (active)
SF-539
  GI50: 239 nM (active)
SK-MEL-28
  GI50: 308 nM (active)
SK-MEL-2
  GI50: 2200 nM (inactive)
SK-MEL-5
  GI50: 59.3 nM (active)
SK-OV-3
  GI50: 1570 nM (inactive)
SN12C
  GI50: 292 nM (active)
SNB-19
  GI50: 571 nM (active)
SNB-75
  GI50: 4110 nM (inactive)
SR
  GI50: < 18.2 nM (active)
T47D
  GI50: < 10 nM (active)
TK-10
  GI50: 832 nM (active)
U-251
  GI50: < 43.1 nM (active)
UACC-257
  GI50: < 10 nM (active)
UACC-62
  GI50: 259 nM (active)
UO-31
  GI50: 133 nM (active)

## C=C(C)C1Cc2c(cc3c(c2O)c(=O)c2ccccc2n3C)O1 (stereo not given)
786-0
  GI50: 1510 nM (inactive)
A498
  GI50: 10100 nM (inactive)
A549
  GI50: 6620 nM (inactive)
ACHN
  GI50: 5140 nM (inactive)
BT-549
  GI50: 1720 nM (inactive)
CAKI-1
  GI50: 2990 nM (inactive)
CCRF-CEM
  GI50: 724 nM (active)
COLO 205
  GI50: 5750 nM (inactive)
DU-145
  GI50: > 10000 nM (inactive)
EKVX
  GI50: 17500 nM (inactive)
HCC 2998
  GI50: 12100 nM (inactive)
HCT-116
  GI50: 2030 nM (inactive)
HCT-15
  GI50: 2750 nM
HL-60
  GI50: 2770 nM (inactive)
HOP-62
  GI50: 9120 nM (inactive)
HOP-92
  GI50: 7670 nM (inactive)
HT-29
  GI50: 2610 nM (inactive)
Hs-578T
  GI50: 6300 nM (inactive)
IGROV-1
  GI50: 1870 nM (inactive)
K562
  GI50: 1790 nM (inactive)
KM12
  GI50: 1950 nM (inactive)
M14
  GI50: 3000 nM (inactive)
MCF7
  GI50: 2940 nM (inactive)
MDA-MB-231
  GI50: 2200 nM (inactive)
MDA-MB-435
  GI50: 5780 nM (inactive)
MDA-N
  GI50: 3200 nM (inactive)
MOLT-4
  GI50: 372 nM (active)
Malme-3M
  GI50: 1630 nM (inactive)
NCI-H226
  GI50: 2410 nM (inactive)
NCI-H23
  GI50: 2360 nM (inactive)
NCI-H460
  GI50: 3100 nM (inactive)
NCI/ADR-RES
  GI50: 2300 nM (inactive)
OVCAR-3
  GI50: 12600 nM (inactive)
OVCAR-4
  GI50: 6810 nM (inactive)
OVCAR-5
  GI50: 13300 nM (inactive)
OVCAR-8
  GI50: 1840 nM (inactive)
PC-3
  GI50: 5710 nM (inactive)
RPMI-8226
  GI50: 2060 nM (inactive)
RXF 393
  GI50: 2750 nM (inactive)
SF-268
  GI50: 2480 nM (inactive)
SF-295
  GI50: 5780 nM (inactive)
SF-539
  GI50: 2400 nM (inactive)
SK-MEL-28
  GI50: 10700 nM (inactive)
SK-MEL-2
  GI50: 5420 nM (inactive)
SK-MEL-5
  GI50: 2380 nM (inactive)
SK-OV-3
  GI50: 4970 nM (inactive)
SN12C
  GI50: 2270 nM (inactive)
SNB-19
  GI50: 2610 nM (inactive)
SNB-75
  GI50: 4500 nM (inactive)
SR
  GI50: 1160 nM (inactive)
SW-620
  GI50: 1810 nM (inactive)
T47D
  GI50: 6670 nM (inactive)
TK-10
  GI50: 13900 nM (inactive)
U-251
  GI50: 3330 nM (inactive)
UACC-257
  GI50: 15800 nM (inactive)
UACC-62
  GI50: 2340 nM (inactive)
UO-31
  GI50: 1840 nM (inactive)
